Test results as given in patent publication US8853246B2 (Dow AgroSciences LLC, priority 2009, dated 2014).

Legend:
[1] = tested on: Sweetpotato Whitefly-Crawler (Bemisia Tabaci); assay: Insecticidal test for sweetpotato whitefly-crawler in foliar spray assay (col. BEMITA); type: in vivo; details: sweetpotato whitefly-crawler; for pest or weed control at 200 ppm: Bemisia tabaci, read-out: BEMITA 200 ppm (Corrected % Control, rating)
Description: (§1) The compounds were tested against cotton aphid, green peach aphid, and sweet potato whitefly using procedures described in the following examples and reported in Table 2.
(§2) In each case of Table 2, the rating scale is as follows at 200 ppm.
Insecticidal Test for Sweetpotato Whitefly-Crawler (Bemisia Tabaci) in Foliar Spray Assay
Cotton plants grown in 3-inch pots, with 1 small (3-5 cm) true leaf, were used as test substrate. The plants were placed in a room with whitefly adults. Adults were allowed to deposit eggs for 2-3 days. After a 2-3 day egg-laying period, plants were taken from the adult whitefly room. Adults were blown off leaves using a hand-held Devilbiss sprayer (23 psi). Plants with egg infestation (100-300 eggs per plant) were placed in a holding room for 5-6 days at 82° F. and 50% RH for egg hatch and crawler stage to develop. Four cotton plants were used for each treatment. Compounds (2 mg) were dissolved in 1 mL of acetone solvent, forming stock solutions of 2000 ppm. The stock solutions were diluted 10× with 0.025% Tween 20 in H2O to obtain a test solution at 200 ppm. A hand-held Devilbiss sprayer was used for spraying a solution to both sides of cotton leaf until runoff. Reference plants (solvent check) were sprayed with the diluent only. Treated plants were held in a holding room for 8-9 days at approximately 82° F. and 50% RH prior to grading. Evaluation was conducted by counting the number of live nymphs per plant under a microscope. Insecticidal activity was measured by using Abbott's correction formula and presented in Table 2 (see col. “BEMITA”): Corrected % Control=100*(X−Y)/X • where X=No. of live nymphs on solvent check plants • Y=No. of live nymphs on treated plants Pesticidally Acceptable Acid Addition Salts, Salt Derivatives, Solvates, Ester Derivatives, Polymorphs, Isotopes and Radionuclides

[2] = tested on: Green Peach Aphid (Myzus Persicae); assay: Insecticidal test for green peach aphid in foliar spray assay (col. MYZUPE); type: in vivo; details: green peach aphid; for pest or weed control at 200 ppm: Myzus persicae, 72 h, read-out: MYZUPE 200 ppm (Corrected % Control, rating)
Description: as §1, §2
Insecticidal Test for Green Peach Aphid (Myzus Persicae) in Foliar Spray Assay
Cabbage seedlings grown in 3-inch pots, with 2-3 small (3-5 cm) true leaves, were used as test substrate. The seedlings were infested with 20-50 green peach aphids (wingless adult and nymph) one day prior to chemical application. Four pots with individual seedlings were used for each treatment. Compounds (2 mg) were dissolved in 2 mL of acetone/methanol (1:1) solvent, forming stock solutions of 1000 ppm. The stock solutions were diluted 5× with 0.025% Tween 20 in H2O to obtain a test solution at 200 ppm. A hand-held Devilbiss sprayer was used for spraying a solution to both sides of cabbage leaves until runoff. Reference plants (solvent check) were sprayed with the diluent only. Treated plants were held in a holding room for three days at approximately 25° C. and 40% relative humidity (RH) prior to grading. Evaluation was conducted by counting the number of live aphids per plant under a microscope. Corrected % Control=100*(X−Y)/X • where X=No. of live aphids on solvent check plants • Y=No. of live aphids on treated plants

CSC(C)CC(=O)N(C)c1sc(-c2cncc(F)c2)nc1C (centres unmarked) [Compound 213]
pest or weed control at 200 ppm [1]: 80 to 100%
pest or weed control at 200 ppm [2]: 80 to 100%

Cc1nc(-c2cncc(F)c2)sc1N(C)C(=O)C1CCSC1 (centres unmarked) [Compound 214]
pest or weed control at 200 ppm [1]: 80 to 100%
pest or weed control at 200 ppm [2]: 80 to 100%

CSC(C)C(C)C(=O)N(C)c1sc(-c2cncc(F)c2)nc1C (centres unmarked) [Compound 215]
pest or weed control at 200 ppm [1]: 80 to 100%
pest or weed control at 200 ppm [2]: 80 to 100%

CSCC(C)C(=O)N(Cc1ccccc1)c1sc(-c2cccnc2)nc1C (centres unmarked) [Compound 221]
pest or weed control at 200 ppm [1]: < 80%
pest or weed control at 200 ppm [2]: 80 to 100%

CSCC(C)C(=O)N(c1sc(-c2cccnc2)nc1C)C(C)C (centres unmarked) [Compound 222]
pest or weed control at 200 ppm [1]: < 80%
pest or weed control at 200 ppm [2]: 80 to 100%

CSCC(C)C(=O)N(CC(C)C)c1sc(-c2cccnc2)nc1C (centres unmarked) [Compound 223]
pest or weed control at 200 ppm [1]: 80 to 100%
pest or weed control at 200 ppm [2]: 80 to 100%

C=CCSCC(C)C(=O)Nc1sc(-c2cccnc2)nc1C (centres unmarked) [Compound 224]
pest or weed control at 200 ppm [1]: 80 to 100%
pest or weed control at 200 ppm [2]: 80 to 100%

CC(C)C(=O)N(C)c1sc(-c2cccnc2)nc1Cl [Compound 231]
pest or weed control at 200 ppm [1]: 80 to 100%
pest or weed control at 200 ppm [2]: 80 to 100%

CCOC(=O)C(C)C(=O)N(C)c1sc(-c2cccnc2)nc1C (centres unmarked) [Compound 232]
pest or weed control at 200 ppm [1]: 80 to 100%
pest or weed control at 200 ppm [2]: < 80%

CCN(C(=O)CCSC)c1sc(-c2cccnc2)nc1C [Compound 236]
pest or weed control at 200 ppm [1]: 80 to 100%
pest or weed control at 200 ppm [2]: 80 to 100%

CCN(C(=O)C(C)(C)CSC)c1sc(-c2cccnc2)nc1C [Compound 237]
pest or weed control at 200 ppm [1]: 80 to 100%
pest or weed control at 200 ppm [2]: 80 to 100%

CCN(C(=O)CCS(C)(=O)=O)c1sc(-c2cccnc2)nc1C [Compound 239]
BEMITA 200 ppm (Corrected % Control, rating) [1]: A (80-100)
MYZUPE 200 ppm (Corrected % Control, rating) [2]: A (80-100)

CN(C(=O)CCS(C)(=O)=O)c1sc(-c2cccnc2)nc1Cl [Compound 246]
pest or weed control at 200 ppm [1]: 80 to 100%
pest or weed control at 200 ppm [2]: 80 to 100%

CSC(C)CC(=O)N(C)c1sc(-c2cccnc2)nc1Cl (centres unmarked) [Compound 248]
pest or weed control at 200 ppm [1]: 80 to 100%
pest or weed control at 200 ppm [2]: 80 to 100%

COC(=O)CCC(=O)N(C)c1sc(-c2cccnc2)nc1C [Compound 252]
pest or weed control at 200 ppm [1]: 80 to 100%
pest or weed control at 200 ppm [2]: 80 to 100%

CCN(C(=O)CC[S+](C)[O-])c1sc(-c2cncc(F)c2)nc1C (centres unmarked) [Compound 256]
pest or weed control at 200 ppm [1]: 80 to 100%
pest or weed control at 200 ppm [2]: 80 to 100%

CCN(C(=O)CCS(C)(=O)=O)c1sc(-c2cncc(F)c2)nc1C [Compound 257]
BEMITA 200 ppm (Corrected % Control, rating) [1]: A (80-100)
MYZUPE 200 ppm (Corrected % Control, rating) [2]: A (80-100)

CCN(C(=O)C(C)C[S+](C)[O-])c1sc(-c2cncc(F)c2)nc1C (centres unmarked) [Compound 258]
pest or weed control at 200 ppm [1]: 80 to 100%
pest or weed control at 200 ppm [2]: 80 to 100%

CCN(C(=O)C(C)CS(C)(=O)=O)c1sc(-c2cncc(F)c2)nc1C (centres unmarked) [Compound 259]
BEMITA 200 ppm (Corrected % Control, rating) [1]: A (80-100)
MYZUPE 200 ppm (Corrected % Control, rating) [2]: A (80-100)

CCN(C(=O)C(C)(C)C[S+](C)[O-])c1sc(-c2cncc(F)c2)nc1C (centres unmarked) [Compound 260]
pest or weed control at 200 ppm [1]: 80 to 100%
pest or weed control at 200 ppm [2]: 80 to 100%

CCN(C(=O)C(C)(C)CS(C)(=O)=O)c1sc(-c2cncc(F)c2)nc1C [Compound 261]
BEMITA 200 ppm (Corrected % Control, rating) [1]: A (80-100)
MYZUPE 200 ppm (Corrected % Control, rating) [2]: A (80-100)

CSCCC(=O)N(C)c1sc(-c2cncc(F)c2)nc1Cl [Compound 266]
pest or weed control at 200 ppm [1]: 80 to 100%
pest or weed control at 200 ppm [2]: 80 to 100%

CCN(C(=O)OC(C)(C)C)c1sc(-c2cncc(F)c2)nc1Cl [Compound 267]
pest or weed control at 200 ppm [1]: 80 to 100%
pest or weed control at 200 ppm [2]: 80 to 100%

CN(C(=O)C(C)(C)C[S+](C)[O-])c1sc(-c2cccnc2)nc1Cl (centres unmarked) [Compound 269]
pest or weed control at 200 ppm [1]: 80 to 100%
pest or weed control at 200 ppm [2]: 80 to 100%

CN(C(=O)CCS(C)(=O)=O)c1sc(-c2cncc(F)c2)nc1Cl [Compound 273]
pest or weed control at 200 ppm [1]: 80 to 100%
pest or weed control at 200 ppm [2]: 80 to 100%
